Reference: PMC9229949 (Pharmaceutics, 2022)
Where two headings read alike, the source gives them in different places.

Legend:
[1] = Interaction with reduced glutathione (GSH) by monochlorobimane fluorescence assay
Protocol: Ten microliters per well of a solution of 2.0 mM reduced glutathione (Sigma-Aldrich, St. Louis, MO, USA, dissolved in PBS pH 7.2) was distributed in a 96-well microplate containing 170 μL/well of DMSO/PBS (1:1; v/v). Stock solutions of compounds were diluted in DMSO, and 10 μL was added in quadruplicate in the respective wells to a final concentration of 0.015 to 0.5 mM. […] After 1 h incubation at room temperature, fluorescence was recorded (λex = 360 nm, λem = 440 nm). Blank subtraction was performed prior to monochlorobimane addition, and controls included untreated wells (no drug) and no GSH. The results were expressed as a percentage of inhibition of GSH binding to monochlorobimane in comparison to control without compound. At least two independent experiments were performed.

[2] = test system: P. falciparum W2 (CQ-resistant) asexual blood stages; assay: In vitro activity against asexual blood stages of P. falciparum, CQ-resistant strain W2 (HRP2 ELISA); type: cell-based; details: Plasmodium falciparum, W2
Protocol: The plates were incubated for 72 h at 37 °C in controlled atmosphere. After frozen and thawing the plates, hemolyzed cultures were homogenized by vortexing the plates. The antiparasitic activity was determined using the HRP2 ELISA-based assay Malaria Ag Celisa kit (ref KM2159, Cellabs PTY LDT, Brookvale, Australia). […] IC50s are expressed as means of three to five experiments.

[3] = Cytotoxicity against J774 cells (CellTiter-Glo); type: cell-based, murine; details: mouse, J774 macrophage cells; J774 macrophages, 72 h, CellTiterGlo; at least two experiments; read-out: CC50 ± S.E.M.
Protocol: In vitro cytotoxicity was assayed against two mammalian cell lineages, J774 (murine macrophages) and HepG2 (human hepatocellular carcinoma). […] Cell cultures from 60 to 80% confluence were trypsinized, washed in complete medium, and 4 × 10^4 cells were plated in 100 µL per well with complete medium in 96-well flat-bottom white plates for 24 h at 37 °C prior to the addition of the compounds. Triplicate aliquots of compound and the reference drugs (stock solution in DMSO) covering 7 different concentrations at 2-fold dilutions were added to the wells, and plates were incubated for 72 h more. After incubation for 72 h at 37 °C, plates were maintained at room temperature, the culture medium was removed, and 100 µL volume of CellTiter-Glo reagent was added to each well. The bioluminescence was measured using a microplate reader Filtermax F5 Multi-Mode instrument (Molecular Devices) and Softmax software. […] The selectivity index (S.I.) was estimated using the IC50s from mammalian cells divided by the IC50 obtained against the asexual blood stage P. falciparum.

Structure (SMILES) | interaction with GSH ([1]; 2 h incubation, 10 to 0.3 drug:GSH molar ratio) | binding to GSH at 24 h versus 2 h incubation ([1]; 24 h versus 2 h incubation) | IC50 ([2]; 72 h incubation, HRP2 ELISA, mean ± S.E.M. of at least three experiments, AQ hydrochloride hydrate, PQ diphosphate, CQ diphosphate, read-out: P. falciparum, IC50 ± S.E.M., CQ-Resistant W2) [nM] | IC50 ([2]; Figure 5 summary, read-out: CQ-resistant P.f.) [nM] | CC50 at 72 h [3] [nM]
[Cl][Au].c1ccc(P(c2ccccc2)c2ccccc2)cc1 [[AuClPPh3]] | able to interact with GSH in a drug-concentration manner | remained almost unaltered | – | – | –
CCN(CC)Cc1cc(Nc2ccnc3cc(Cl)ccc23)ccc1O [Amodiaquine (AQ), amodiaquine] | – | – | 86.2 ± 9.4 | 86 ± 9 | 23800
